{"source": "paper PMC12713470", "about": "“Design and Synthesis of Novel Chalcone Derivatives Targeting Bladder and Liver Cancer: Cytotoxicity Evaluation and Preliminary Mechanistic Studies” (ACS Omega, 2025)", "key": {"[1]": {"tested_on": "HepG2: human liver hepatocellular carcinoma cells", "test": "MTT cytotoxicity assay on HepG2 cells", "format": "cell-based", "experimental": "Cytotoxicity was determined using the MTT colorimetric assay, and half-maximal inhibitory concentrations (IC50, μM) were obtained for all cell lines (Table ). The selectivity index (SI) was calculated as the ratio of IC50 MRC-5/IC50 cancer cell line. Doxorubicin was employed as a positive control due to its broad-spectrum clinical use, either alone or in combination, against hepatocellular, ovarian, cervical, and bladder cancers. −\nIn vitro biological assays were performed by using five human cell lines for cytotoxicity evaluation. HepG2 cells (ATCC HB-8065), derived from a human hepatocellular carcinoma of the liver (person), were cultured in Dulbecco’s modified Eagle medium (DMEM) supplemented with 5% fetal bovine serum (FBS), penicillin/streptomycin (100 IU/mL), and amphotericin B (5 μg/mL), in a humidified incubator with 5% CO2 at 37 °C. These cells were plated at a concentration of 2.0 × 10^4 cells/well in 96-well microplates. MRC-5 cells (ATCC CCL-171), derived from human lung fibroblasts of a […] fetus, were cultured under the same conditions and plated at 1.0 × 10^4 cells/well. T24 cells (ATCC HTB-4), established from a transitional cell carcinoma of the bladder (person), were also cultured under identical conditions and plated at a density of 1.0 × 10^4 cells/well. TOV-21G cells (ATCC CRL-11730), derived from a primary malignant ovarian adenocarcinoma (person), were maintained in DMEM with the same supplementation and environmental conditions and plated at 5.0 × 10^4 cells/well. […]\nHeLa, HepG2, MRC-5, T24, and TOV-21G cells were suspended in a culture medium supplemented with 5% fetal bovine serum (FBS) and seeded into 96-well microplates. The plates were incubated under a humidified atmosphere containing 5% CO2 at 37 °C for 24 h, allowing for adherence and monolayer formation. , Eight serial dilutions of the test samples, previously solubilized in dimethyl sulfoxide (DMSO), were prepared in DMEM supplemented with 1% FBS, covering a concentration range from […], and the results were converted to […]. The volume of DMSO in each well was limited to a final concentration not exceeding 2%. Following monolayer formation, the culture medium was aspirated and replaced with 100 μL of the diluted test samples and 100 μL of DMEM containing 1% FBS. The plates were then incubated under the same atmospheric and temperature conditions.\nTwo hours prior to end point reading, 20 μL of MTT [3-(4,5-dimethylthiazol-2-yl)-2,5-diphenyltetrazolium bromide] solution (1.0 mg/mL in sterile phosphate-buffered saline, Sigma-Aldrich) was added to each well. The incubation period following sample addition varied according to the cell line: 24 h for MRC-5, 48 h for T24, and 72 h for HeLa, HepG2, and TOV-21G. After the appropriate incubation, absorbance was measured by using a VICTOR X3 microplate reader (PerkinElmer), and data were processed with WorkOut 2.5 software at a wavelength of 490 nm. Formazan formation, resulting from the MTT reduction by metabolically active cells, was used as an indirect measure of cell viability. The percentage of cytotoxicity was calculated using the equation % cytotoxicity = [(A – B)/A] × 100, where A is the optical density (OD4 9 0) of untreated control cells and B is the OD4 9 0 of treated cells.\nCytotoxicity was expressed as the 50% cytotoxic concentration (CC5 0), representing the concentration of sample required to reduce cell viability by 50% relative to that of the untreated control."}, "HepG2 cells": {"tested_on": "HepG2 cells", "test": "Morphology assay, HepG2", "format": "cell-based, human", "conditions": "2.15-18.50 μM, 48 h", "experimental": "For the morphology assay, 2.0 × 10^5 cells were cultured in 12-well plates for 24 h to allow adherence. After this period, the cells were treated with the chalcone at concentrations of 2.15, 4.62, 9.25, and 18.50 μM for 48 h. After treatment, the cells were examined and photographed under an inverted microscope at 200× magnification."}}}
{"compound": "CCCc1cc(/C=C/C(=O)c2ccc(C)cc2)c(OC)c(OC)c1", "note": "[compound 3, (E)-3-(2,3-Dimethoxy-5-propylphenyl)-1-(p-tolyl)-prop-2-en-1-one]", "values": [{"measurement": "IC50", "setting": "[1]; Homo sapiens, HepG2, MTT, 72 h incubation, n = 3, NA: noncytotoxic at the concentrations tested", "result": "4.5 ± 1.2", "unit": "µM"}, {"measurement": "SI (HepG2)", "setting": "[1]; IC50 MRC-5/IC50 HepG2", "result": 12.2}, {"measurement": "morphology, HepG2", "setting": "HepG2 cells", "result": "reduction in cell density was observed"}]}
